Patent US20250064941A1, “SIGLEC LIGANDS, CONJUGATES, AND METHODS OF USE THEREOF” (Osprey Biopharmaceuticals, Inc., priority 2023, published 2025)

Columns and labels:
cynomolgus Siglec-2/CD22 = cynomolgus Siglec-2/CD22 (Macaca fascicularis, UniProt A0A2K5WCZ6); test: biochemical; type: binding; conditions: SPR, steady-state analysis; read-out: Affinity cyno CD22
Outline: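 Compound binding measured by steady-state SPR analysis, 120 s dissociation, in HEPES-NaCl-Tween buffer pH 7.5 containing 1% DMSO, DMSO solvent-corrected. Surface: cyno CD22, sialic acids first stripped by SialoExo for 4 h at 37° C., then amine-coupled onto CM5.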

[1] = target: T1, mouse Siglec-2-Fc-Avi (CD22) (Mus musculus, UniProt P35329); test: SPR binding affinity to mouse CD22; conditions: steady-state analysis
T1 construct: made in house
T1 sequence (P35329 22-708 limits assumed): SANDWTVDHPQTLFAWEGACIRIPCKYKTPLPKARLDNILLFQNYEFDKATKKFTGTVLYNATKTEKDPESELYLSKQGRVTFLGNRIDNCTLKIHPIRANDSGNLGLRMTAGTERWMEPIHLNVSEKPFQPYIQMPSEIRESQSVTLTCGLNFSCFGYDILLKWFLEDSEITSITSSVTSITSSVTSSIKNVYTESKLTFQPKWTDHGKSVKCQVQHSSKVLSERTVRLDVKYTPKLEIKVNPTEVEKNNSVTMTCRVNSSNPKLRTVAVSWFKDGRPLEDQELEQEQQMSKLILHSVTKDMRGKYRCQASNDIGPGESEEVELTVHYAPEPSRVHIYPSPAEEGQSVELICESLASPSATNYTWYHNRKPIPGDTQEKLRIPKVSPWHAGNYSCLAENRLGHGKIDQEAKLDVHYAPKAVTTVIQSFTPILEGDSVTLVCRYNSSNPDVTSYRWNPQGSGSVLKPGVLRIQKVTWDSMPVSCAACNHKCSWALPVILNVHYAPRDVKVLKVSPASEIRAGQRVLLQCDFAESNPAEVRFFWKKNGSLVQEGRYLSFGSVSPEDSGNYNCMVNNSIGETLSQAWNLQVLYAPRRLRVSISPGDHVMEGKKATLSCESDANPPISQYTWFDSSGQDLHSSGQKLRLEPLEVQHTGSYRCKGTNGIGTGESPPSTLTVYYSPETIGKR
Outline: (§1)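 Native sialic acid residues are removed from the receptor enzymatically (4 hours at 37° C.) prior to streptavidin capture of the biotinylated protein. Ligand compounds then flow over in HEPES-buffered saline, pH 7.5, containing 0.05% Tween-20 and 1% DMSO, and binding is evaluated at steady state.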

[2] = target: T2, human Siglec-2/CD22 protein (Homo sapiens, UniProt P20273); test: SPR binding affinity to human CD22; conditions: steady-state analysis
T2 construct: purchased Acro Biosystems SI2-H82E3
T2 sequence (P20273 20-847): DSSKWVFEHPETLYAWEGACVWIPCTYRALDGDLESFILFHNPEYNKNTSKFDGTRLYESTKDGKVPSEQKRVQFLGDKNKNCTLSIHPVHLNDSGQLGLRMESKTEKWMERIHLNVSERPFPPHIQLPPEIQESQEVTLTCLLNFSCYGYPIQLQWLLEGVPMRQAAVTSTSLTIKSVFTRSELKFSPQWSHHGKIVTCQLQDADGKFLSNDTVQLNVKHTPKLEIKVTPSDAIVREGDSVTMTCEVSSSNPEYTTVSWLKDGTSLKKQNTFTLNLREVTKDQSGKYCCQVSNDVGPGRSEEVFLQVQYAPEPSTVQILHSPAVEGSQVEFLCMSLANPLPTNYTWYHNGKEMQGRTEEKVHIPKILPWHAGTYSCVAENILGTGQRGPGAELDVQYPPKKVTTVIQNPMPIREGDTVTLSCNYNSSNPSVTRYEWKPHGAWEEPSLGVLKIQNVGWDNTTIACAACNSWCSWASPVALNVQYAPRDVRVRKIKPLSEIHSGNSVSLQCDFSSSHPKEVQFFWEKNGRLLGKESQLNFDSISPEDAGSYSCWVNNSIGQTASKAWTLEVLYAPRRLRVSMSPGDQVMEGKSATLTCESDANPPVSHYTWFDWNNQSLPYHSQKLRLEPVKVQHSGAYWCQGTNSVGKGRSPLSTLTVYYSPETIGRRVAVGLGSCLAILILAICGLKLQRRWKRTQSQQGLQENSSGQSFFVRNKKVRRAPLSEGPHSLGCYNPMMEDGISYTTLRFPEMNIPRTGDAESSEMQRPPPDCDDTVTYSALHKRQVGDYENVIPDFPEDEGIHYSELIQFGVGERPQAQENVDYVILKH
Outline: as §1

Sequence of cynomolgus Siglec-2/CD22 (A0A2K5WCZ6 entry or part of it): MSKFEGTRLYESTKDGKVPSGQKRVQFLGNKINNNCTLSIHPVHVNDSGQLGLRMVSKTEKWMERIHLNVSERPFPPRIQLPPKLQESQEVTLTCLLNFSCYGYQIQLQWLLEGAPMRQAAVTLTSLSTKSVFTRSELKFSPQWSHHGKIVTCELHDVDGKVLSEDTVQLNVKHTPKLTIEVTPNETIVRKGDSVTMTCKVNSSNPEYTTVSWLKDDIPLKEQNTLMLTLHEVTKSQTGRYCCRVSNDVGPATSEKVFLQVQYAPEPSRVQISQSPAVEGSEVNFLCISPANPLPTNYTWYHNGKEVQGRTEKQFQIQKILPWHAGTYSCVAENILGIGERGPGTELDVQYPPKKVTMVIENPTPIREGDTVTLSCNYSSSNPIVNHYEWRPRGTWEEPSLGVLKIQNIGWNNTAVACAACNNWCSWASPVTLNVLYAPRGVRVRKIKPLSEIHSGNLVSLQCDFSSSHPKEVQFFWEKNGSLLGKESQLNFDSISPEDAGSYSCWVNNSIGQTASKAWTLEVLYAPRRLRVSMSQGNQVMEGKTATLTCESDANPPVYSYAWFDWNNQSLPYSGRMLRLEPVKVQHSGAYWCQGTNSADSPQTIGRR

Kd (cynomolgus Siglec-2/CD22) | Kd [1] | Kd [2] | SMILES
1 to 10 µM | > 10 µM | 1 to 10 µM | CC(=O)NCCOCCOCCOCCOCCNc1c(NCCCCCCO[C@]2(C(=O)O)C[C@H](O)[C@@H](NC(C)=O)[C@H]([C@H](O)[C@H](O)CNC(=O)c3cccc(Cl)c3)O2)c(=O)c1=O [Compound 273, (2R,4S,5R,6R)-5-acetamido-6-((1R,2R)-3-(3-chlorobenzamido)-1,2-dihydroxypropyl)-2-((6-((3,4-dioxo-2-((2-oxo-6,9,12,15-tetraoxa-3-azaheptadecan-17-yl)amino)cyclobut-1-en-1-yl)amino)hexyl)oxy)-4-hydroxytetrahydro-2H-pyran-2-carboxylic acid]
< 1 µM | < 1 µM | < 1 µM | C#CCCOc1ccc(CS[C@]2(C(=O)O)C[C@H](O)[C@@H](NC(=O)CO)[C@H]([C@H](O)[C@H](O)CNC(=O)Cc3ccc(-c4ccc(O)cc4)cc3)O2)cc1 [Compound 64, (2S,4S,5R,6R)-2-((4-(but-3-yn-1-yloxy)benzyl)thio)-6-((1R,2R)-1,2-dihydroxy-3-(2-(4′-hydroxy-[1,1′-biphenyl]-4-yl)acetamido)propyl)-4-hydroxy-5-(2-hydroxyacetamido)tetrahydro-2H-pyran-2-carboxylic acid]
< 1 µM | < 1 µM | < 1 µM | C#CCCOc1ccc(CO[C@]2(C(=O)O)C[C@H](O)[C@@H](NC(N)=O)[C@H]([C@H](O)[C@H](O)CNC(=O)Cc3ccc(Cl)cc3)O2)cc1 [Compound 205, (2R,4S,5R,6R)-2-((4-(but-3-yn-1-yloxy)benzyl)oxy)-6-((1R,2R)-3-(2-(4-chlorophenyl)acetamido)-1,2-dihydroxypropyl)-4-hydroxy-5-ureidotetrahydro-2H-pyran-2-carboxylic acid]
1 to 10 µM | 1 to 10 µM | 1 to 10 µM | CC(=O)NCCOCCOCCOCCOCc1cn(CCOCCOCCO[C@]2(C(=O)O)C[C@H](O)[C@@H](NC(=O)CO)[C@H]([C@H](O)[C@H](O)CNC(=O)Cc3ccc(Cl)cc3)O2)nn1 [Cpd. 260, (2R,4S,5R,6R)-6-((1R,2R)-3-(2-(4-chlorophenyl)acetamido)-1,2-dihydroxypropyl)-4-hydroxy-5-(2-hydroxyacetamido)-2-(2-(2-(2-(4-(15-oxo-2,5,8,11-tetraoxa-14-azahexadecyl)-1H-1,2,3-triazol-1-yl)ethoxy)ethoxy)ethoxy)tetrahydro-2H-pyran-2-carboxylic acid]
1 to 10 µM | > 10 µM | 1 to 10 µM | O=C(O)CCCO[C@]1(C(=O)O)C[C@H](O)[C@@H](NC(=O)CO)[C@H]([C@H](O)[C@H](O)CNC(=O)Cc2ccc(Cl)cc2)O1 [Compound 118, (2R,4S,5R,6R)-2-(3-carboxypropoxy)-6-((1R,2R)-3-(2-(4-chlorophenyl)acetamido)-1,2-dihydroxypropyl)-4-hydroxy-5-(2-hydroxyacetamido)tetrahydro-2H-pyran-2-carboxylic acid]
1 to 10 µM | 1 to 10 µM | 1 to 10 µM | C#CCOCc1cn([C@]2(C(=O)O)C[C@H](O)[C@@H](NC(=O)CO)[C@H]([C@H](O)[C@H](O)CNC(=O)Cc3ccc(-c4ccc(O)cc4)cc3)O2)nn1 [Compound 62, (2R,4S,5R,6R)-6-((1R,2R)-1,2-dihydroxy-3-(2-(4′-hydroxy-[1,1′-biphenyl]-4-yl)acetamido)propyl)-4-hydroxy-5-(2-hydroxyacetamido)-2-(4-((prop-2-yn-1-yloxy)methyl)-1H-1,2,3-triazol-1-yl)tetrahydro-2H-pyran-2-carboxylic acid]
1 to 10 µM | 1 to 10 µM | 1 to 10 µM | CC(=O)NCCOCCOCCOCCOCCC(=O)NCCOCCOCCO[C@]1(C(=O)O)C[C@H](O)[C@@H](NC(=O)CO)[C@H]([C@H](O)[C@H](O)CNC(=O)Cc2ccc(Cl)cc2)O1 [Compound 237, (2R,4S,5R,6R)-6-((1R,2R)-3-(2-(4-chlorophenyl)acetamido)-1,2-dihydroxypropyl)-2-((2,18-dioxo-6,9,12,15,22,25-hexaoxa-3,19-diazaheptacosan-27-yl)oxy)-4-hydroxy-5-(2-hydroxyacetamido) tetrahydro-2H-pyran-2-carboxylic acid]
< 1 µM | 1 to 10 µM | < 1 µM | C#CCOCCCCCCO[C@]1(C(=O)O)C[C@H](O)[C@@H](NC(=O)CO)[C@H]([C@H](O)[C@H](O)CNC(=O)Cc2ccc(Cl)c(C(F)(F)F)c2)O1 [Compound 127, (2R,4S,5R,6R)-6-((1R,2R)-3-(2-(4-chloro-3-(trifluoromethyl)phenyl)acetamido)-1,2-dihydroxypropyl)-4-hydroxy-5-(2-hydroxyacetamido)-2-((6-(prop-2-yn-1-yloxy)hexyl)oxy)tetrahydro-2H-pyran-2-carboxylic acid]
1 to 10 µM | 1 to 10 µM | < 1 µM | C#CCOCCOCCO[C@@]1(C(=O)O)O[C@@H]([C@H](O)[C@H](O)CNC(=O)Cc2ccc(-c3ccccc3)cc2)[C@H](NC(=O)CO)[C@@H](NC(=O)c2cccc(OC)c2)[C@@H]1O [Compound 36, (2R,3S,4R,5R,6R)-6-((1R,2R)-3-(2-([1,1′-biphenyl]-4-yl)acetamido)-1,2-dihydroxypropyl)-3-hydroxy-5-(2-hydroxyacetamido)-4-(3-methoxybenzamido)-2-(2-(2-(prop-2-yn-1-yloxy)ethoxy)ethoxy)tetrahydro-2H-pyran-2-carboxylic acid]
< 1 µM | 1 to 10 µM | < 1 µM | CC(=O)NCCOCCOCCOCCOCCC(=O)NCCCCCCO[C@]1(C(=O)O)C[C@H](O)[C@@H](NC(=O)CO)[C@H]([C@H](O)[C@H](O)CNC(=O)Cc2ccc(C(F)F)cc2)O1 [Cpd. 256, (2R,4S,5R,6R)-6-((1R,2R)-3-(2-(4-(difluoromethyl)phenyl)acetamido)-1,2-dihydroxypropyl)-2-((2,18-dioxo-6,9,12,15-tetraoxa-3,19-diazapentacosan-25-yl)oxy)-4-hydroxy-5-(2-hydroxyacetamido) tetrahydro-2H-pyran-2-carboxylic acid]
> 10 µM | > 10 µM | > 10 µM | C#CCOCCOCCO[C@]1(C(=O)O)C[C@H](O)[C@@H](NC(=O)CO)[C@H]([C@H](O)[C@H](O)CNC(=O)Cc2ccc(O)c(Cl)c2)O1 [Compound 197, (2R,4S,5R,6R)-6-((1R,2R)-3-(2-(3-chloro-4-hydroxyphenyl)acetamido)-1,2-dihydroxypropyl)-4-hydroxy-5-(2-hydroxyacetamido)-2-(2-(2-(prop-2-yn-1-yloxy)ethoxy)ethoxy)tetrahydro-2H-pyran-2-carboxylic acid]
1 to 10 µM | 1 to 10 µM | < 1 µM | C#CCOc1ccc(-c2cn([C@]3(C(=O)O)C[C@H](O)[C@@H](NC(=O)CO)[C@H]([C@H](O)[C@H](O)CNC(=O)Cc4ccc(-c5ccc(O)cc5)cc4)O3)nn2)cc1 [Compound 53, (2R,4S,5R,6R)-6-((1R,2R)-1,2-dihydroxy-3-(2-(4′-hydroxy-[1,1′-biphenyl]-4-yl)acetamido)propyl)-4-hydroxy-5-(2-hydroxyacetamido)-2-(4-(4-(prop-2-yn-1-yloxy)phenyl)-1H-1,2,3-triazol-1-yl)tetrahydro-2H-pyran-2-carboxylic acid]
